Experimental data: patent US20230255906A1, “Targeting Serpin B9 in Cancer” (The Brigham and Women`s Hospital, Inc., priority 2020, published 2023)

How the values were obtained:
[1] = system: B16-WT mouse melanoma tumors; assay: B16 melanoma tumor model in C57BL/6 mice; format: in vivo
Description: Mice were anesthetized with isoflurane, and tumor cell lines (B16, A375, and 4T1) were gently injected subcutaneously in the flanks or mammary glands of mice. One hundred thousand cells (1×10^5 cells) were injected per mouse for most of the experiments. However, twenty-five thousand cells (25×10^3 cells) were injected per mouse for the experiments using the compound of Formula (III). Upon 4 hrs post-implantation, 300 μg of the compound of Formula (III) was administered twice a day intraperitoneally for 14 days. Tumor growth was monitored three times per week by digital caliper (Fisherbrand™ Traceable™ Digital Calipers).
The anti-tumor activity of the compound of Formula (III) in vivo was assessed. […] Treatment with the compound of Formula (III) increased the median survival time (MST) of mice bearing B 16-WT mouse melanoma tumors and receiving treatment with the compound of Formula (III) as compared to mice bearing B16-WT melanoma tumors and not receiving treatment (MST=39 days vs MST=26 days, respectively) (FIG. 51B). Next, the effect of the compound of Formula (III) on tumor immunity was examined.
The efficacy of the compound of Formula (III) was assessed in C57BL/6J mice (FIG. 18). B16 mouse melanoma cells were implanted subcutaneously into the right flanks of C57BL/6J mice, and the mice were randomized into three groups: (1) no treatment (control), (2) treatment with anti-PD1, and (3) treatment with Formula (III). The mice in the anti-PD1 group received 200 μg of anti-PD1 iv every 3 days, and those in the Formula (III) group received 300 μg of Formula (III) twice a day consecutively for 14 days.
A survival study using the compound of Formula (IV) in mice harboring B16 melanoma was performed. Mice implanted with B16 tumors were treated with the compound of Formula (IV) (n=8) and compared to a control group having B16 tumors and not receiving treatment with the compound of Formula (IV) (n=8).

[2] = In vivo toxicity (CBC, serum chemistry, H&E); design: species or system mouse; settings: 300 μg i.p. twice a day for 14 days
Description: To further assess the in vivo toxicity of the compound of Formula (III), 300 μg of the compound of Formula (III) was administered twice a day intraperitoneally for 14 days.

Sb9-GrB complex = biological target: T1, Sb9-GrB complex (Mus musculus, UniProt F7A2V8); assay: Western blot of Sb9-GrB complex in B16 cells; format: cell-based; settings: 50 μM, 200 μM, 600 μM, concentration-dependent
T1 construct: endogenous in cells
Description: FIG. 4G. […] Sb9-GrB complex (com), unbound Sb9 (mono), and complex degradation products or cleaved Sb9 (deg) are indicated by arrows. GAPDH was used as a loading control for protein normalization.
Lysates of cells and tissues were measured using the Bradford assay. Equal amounts of protein were separated by SDS-PAGE and transferred to a PVDF membrane. The membranes were immunoblotted with the following specific antibodies: anti-rabbit IgG-HRP (Sigma-Aldrich), anti-rat IgG-HRP (Sigma-Aldrich), and anti-GAPDH (Sigma-Aldrich), using standard protocols. The blots were developed with West Dura chemiluminescent substrates using a Bio-Rad ChemiDoc imaging system.

[3] = system: B16-Sb9 KO melanoma cells; assay: Apoptosis by flow cytometry (Annexin-V, viability dye) in Sb9 knockout cells; format: cell-based, mouse; settings: 50 μM, 100 μM, and 200 μM
Description: FIG. 5M. […] Cells treated with PBS alone were used as a negative control. Data are expressed as means±SD from three independent experiments.
(§1) To evaluate the off-target effects of the compound of Formula (III) to Sb9 proteins, the B16-Sb9 KO melanoma cells were treated with various concentrations of the compound of Formula (III). […] Furthermore, the antitumor effects of the compound of Formula (III) on the Sb9 KO mice bearing B16-Sb9 KO tumors, as compared to control group were not observed (FIG. 5N).

B16-Sb9 KO cells = assay: RT-PCR gene expression in B16-Sb9 KO cells; format: cell-based, mouse
Description: Total RNA was prepared from cells using the Quick-RNA MiniPrep kit (Zymo Research, Irvine, Calif., USA), according to the manufacturer's instructions. cDNA was prepared from total RNA using SuperScript III Reverse Transcriptase (Invitrogen). Following reverse transcription, quantitative PCR was performed using a cycling profile consisting of 95° C. for 2 min (Stage I), 30 cycles of 95° C. for 20 s, 58° C. for 30 s, and 70° C. for 30 s (Stage II), and 65° C. for 5 s (Stage III). Fold changes were determined by subtracting Cq values of the loading control from the Cq values of the gene of interest. The results were normalized to untreated controls.
as §1

[4] = 17 days post-implantation, flow cytometry

T1 sequence (F7A2V8 1-374, one chain of several): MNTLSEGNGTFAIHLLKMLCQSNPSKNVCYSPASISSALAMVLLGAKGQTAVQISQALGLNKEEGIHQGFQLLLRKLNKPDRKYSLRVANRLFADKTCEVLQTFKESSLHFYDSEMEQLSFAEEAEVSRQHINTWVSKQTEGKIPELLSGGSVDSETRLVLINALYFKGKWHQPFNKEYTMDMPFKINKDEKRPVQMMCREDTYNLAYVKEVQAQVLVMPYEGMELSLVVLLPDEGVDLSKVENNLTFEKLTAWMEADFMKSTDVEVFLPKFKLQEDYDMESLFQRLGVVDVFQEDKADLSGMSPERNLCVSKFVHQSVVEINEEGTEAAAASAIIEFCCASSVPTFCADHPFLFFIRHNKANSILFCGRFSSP

O=C(O)c1ccc2ncoc2c1 [Formula (III), 1,3-benzoxazole-6-carboxylic acid]
level of effector IFNγ+ CD4+ cells in TME ([1]; 17 days post-implantation): increased level
level of immunosuppressive IL10+CD4+ and IL10+CD8+ cells in TME ([1]; 17 days post-implantation): decreased level
levels of immunosuppressive Tregs, TAMs, and MDSCs in melanoma vs control [1, 4]: significantly lower
populations of CD44+ CD62L− (effector memory) CD8+, GrB+ CD8+ and IFNγ+ CD8+ in melanoma vs control [1, 4]: significantly higher
median survival time (MST) ([1]; B16-WT tumors, 300 μg i.p. bid for 14 days (FIG. 5B)): 39 days
median survival time (MST) ([1]; C57BL/6J, FIG. 18, Formula (III) 300 μg twice a day 14 days, anti-PD1 200 μg iv every 3 days): 36 days
reduction of size of B16 tumors vs control ([1]; C57BL/6 mice, 300 μg i.p. bid for 14 days): 3.7 fold
CBC: WBC, HGB, and PLT vs control [2]: no significant difference
serum AST, ALT, CRE, and ALB levels vs control [2]: similar
toxicity to liver, kidney, lung, and heart tissues (H&E staining) [2]: no toxicity
expression of the Sb9-GrB complex (Sb9-GrB complex): reduced the expression of the Sb9-GrB complex
additional apoptosis in Sb9 knockout cells (off-target) [3]: No additional apoptotic effect
gene expression of caspase-3/8, P53, and Bcl-2 (B16-Sb9 KO cells): no significant effect
